Experimental data: ChEMBL document CHEMBL1201862, “PubChem BioAssay data set” (2004)
Calls of active or inactive are those of the source. For most assays here, no stated cut-off is given here; in the data, actives have a measured EC50 and inactives only a lower limit.

Tests used:
[1] = cells; assay type: functional
[2] = Vero E6 cell cytotoxicity, dose response, cytotoxicity control for non-replicating M. tuberculosis project, secondary assay (AID 492998); assay type: functional, VeroE6; settings: Vero C1008
[3] = system: Streptococcus; assay: GAS UMAA2166 growth inhibition – luminescence, BacTiterGlo, counter-screen for streptokinase expression inhibitor project, dose response (AID 1915); assay type: functional, organism-based;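 further: potency for reduction of bacterial viability or growth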
[4] = THP-1 cell cytotoxicity, dose response, cytotoxicity control for non-replicating M. tuberculosis project (AID 489025); assay type: functional
[5] = system: Streptococcus sp. 'group A'; assay: Streptococcus pyogenes SK(-)GAS viability under kanamycin – luminescence, BacTiterGlo, confirmation, counter-screen for streptokinase expression inhibitor project, dose response (AID 1900); assay type: functional, organism-based
[6] = NIH-3T3 fibroblast cytotoxicity, dose response, cytotoxicity control, cell-based, fluorescence, Alamar Blue, secondary assay (AID 2327); assay type: functional;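 further: NIH-3T3 mouse fibroblasts cultured with fluconazole at 8 µg/mL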
[7] = fluconazole-exposed Candida albicans growth modulators – fluorescence, retest, confirmation (AID 2467); assay type: functional, cell-based
[8] = molecular target: Beta-galactosidase (Escherichia coli, UniProt Q8VNN2); assay: Dose response counterscreen for EBI2 assay utilizing the enzyme, b-galactosidase.; assay type: functional
[9] = molecular target: Peroxisome proliferator-activated receptor gamma/Nuclear receptor coactivator 2 (Homo sapiens, UniProt P37231); assay: (§1) TR-FRET dose response biochemical High Throughput Screening assay for agonists of the steroid receptor coactivator 2 (SRC-2) recruitment by the peroxisome proliferator-activated receptor gamma (PPAR gamma): non-selective agonists. [Related pubchem assays: 1297, 1032 ]; assay type: functional
[10] = NIH3T3 cell viability loss – ATP luminescence, mouse fibroblasts, counter-screen, dose response (AID 2010); assay type: functional, cell-based;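 further: cells exposed to compound for about 90 hours before reading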
[11] = Trypanosoma cruzi growth suppression in host cells – NIH3T3 host cells, beta-gal luminescence, confirmation (AID 2044); assay type: functional, cell-based;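 further: intracellular parasites grown in NIH/3T3 mouse fibroblasts as host cells; luminescent beta-galactosidase reporter signal from transgenic T. cruzi replicating inside host cells; inhibitors lower the luminescence signal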
[12] = molecular target: Peroxisome proliferator-activated receptor gamma/Nuclear receptor coactivator 1 (Homo sapiens, UniProt P37231); assay: as §1, with “1 (SRC-1)” for “2 (SRC-2)”, “assays (depositor defined):AID1300, AID1808, AID504735, AID631]” for “assays: 1297, 1032 ]”; assay type: protein assay
[13] = molecular target: Peroxisome proliferator-activated receptor gamma/Nuclear receptor coactivator 3 (Homo sapiens, UniProt P37231); assay: as §1, with “3 (SRC-3)” for “2 (SRC-2)”, “1301 (Confirmation screen.), 1048 (Primary screen.)]” for “1297, 1032 ]”; assay type: functional
[14] = molecular target: ATP-dependent molecular chaperone HSP82 (Candida albicans (strain WO-1) (Yeast), UniProt C4YTQ8); assay: steroid-induced GRE reporter decrease in yeast – S. cerevisiae, luminescence, Hsp90 inhibitor project, dose response (AID 2400); assay type: functional, cell-based;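 further: beta-galactosidase luminescence from glucocorticoid response element reporter as proxy for Hsp90 function; inhibitor potency where signal loss means Hsp90 inhibition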
[15] = molecular target: T1, Serine/threonine-protein phosphatase (Candida dubliniensis (strain CD36 / CBS 7987 / NCPF 3949 / NRRLY-17841) (Yeast), UniProt B9W6M3); assay: blockers of CaCl2-induced CDRE-lacZ signaling – S. cerevisiae, luminescence, secondary, dose response (AID 2388); assay type: functional, cell-based;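 further: yeast reporter cells carrying a calcineurin-responsive lacZ construct stimulated with calcium chloride; luminescent beta-galactosidase reporter signal in whole cells rather than isolated phosphatase activity; potency for inhibition where a drop in reporter signal means calcineurin blockade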
T1 sequence (B9W6M3 whole entry): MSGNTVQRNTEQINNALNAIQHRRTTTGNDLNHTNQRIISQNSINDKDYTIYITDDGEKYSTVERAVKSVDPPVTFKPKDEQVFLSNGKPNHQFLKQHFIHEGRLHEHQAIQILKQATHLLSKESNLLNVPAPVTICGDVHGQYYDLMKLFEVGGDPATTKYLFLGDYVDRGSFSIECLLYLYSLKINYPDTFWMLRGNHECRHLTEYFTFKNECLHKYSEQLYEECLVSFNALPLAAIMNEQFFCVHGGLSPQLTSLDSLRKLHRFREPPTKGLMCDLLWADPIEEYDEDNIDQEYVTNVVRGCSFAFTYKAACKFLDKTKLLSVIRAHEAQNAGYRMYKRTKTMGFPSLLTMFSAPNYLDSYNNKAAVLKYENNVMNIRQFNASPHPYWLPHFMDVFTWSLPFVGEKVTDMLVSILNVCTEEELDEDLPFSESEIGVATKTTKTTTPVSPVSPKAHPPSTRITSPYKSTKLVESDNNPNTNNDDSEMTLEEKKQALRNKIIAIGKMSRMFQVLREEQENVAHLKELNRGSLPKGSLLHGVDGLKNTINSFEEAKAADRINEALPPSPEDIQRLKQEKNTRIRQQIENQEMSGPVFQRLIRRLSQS

[16] = system: HEK293; assay: EBV LMP1 TES2 canonical NF-kB signalling blockers – cell-based, HEK293, luciferase, cherry-pick, dose response (AID 588343); assay type: functional; settings: Homo sapiens
[17] = molecular target: Troponin, cardiac muscle (Homo sapiens, UniProt P19429+P45379+P63316); assay: Fluorescence-based biochemical high throughput dose response assay for activators of the calcium sensitivity of cardiac Regulated Thin Filaments (RTF). [Related pubchem assays (depositor defined):AID493008, AID493018, AID504382, AID504383]; assay type: protein-complex assay
[18] = molecular target: T2, Coagulation factor XII (Homo sapiens, UniProt P00748); assay type: functional;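 further: activated factor XIIa alpha cleaving a fluorogenic AMC peptide substrate; inhibitor potency from loss of enzyme activity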
T2 sequence (P00748 whole entry): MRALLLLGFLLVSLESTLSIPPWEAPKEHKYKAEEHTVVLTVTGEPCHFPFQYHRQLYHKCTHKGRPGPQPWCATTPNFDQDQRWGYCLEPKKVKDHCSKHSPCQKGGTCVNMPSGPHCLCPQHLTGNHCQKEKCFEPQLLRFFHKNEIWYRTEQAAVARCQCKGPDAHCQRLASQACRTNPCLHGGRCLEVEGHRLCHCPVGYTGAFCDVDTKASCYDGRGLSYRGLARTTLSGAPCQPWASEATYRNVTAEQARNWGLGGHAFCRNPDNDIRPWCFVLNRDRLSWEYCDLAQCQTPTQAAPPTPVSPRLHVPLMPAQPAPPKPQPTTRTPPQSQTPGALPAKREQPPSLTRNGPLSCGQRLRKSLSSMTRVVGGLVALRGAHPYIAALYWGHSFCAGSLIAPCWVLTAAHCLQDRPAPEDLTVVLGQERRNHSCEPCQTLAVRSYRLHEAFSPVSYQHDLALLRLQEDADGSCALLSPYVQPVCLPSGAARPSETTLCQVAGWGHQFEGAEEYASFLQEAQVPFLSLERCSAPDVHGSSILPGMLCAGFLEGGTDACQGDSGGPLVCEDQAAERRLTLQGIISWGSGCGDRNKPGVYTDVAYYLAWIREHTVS

[19] = system: BJ; assay: BJ-TERT fibroblast viability loss – cell-based, RAS-independent, luminescence, dose response (AID 1933); assay type: functional; settings: Homo sapiens
[20] = system: BJ; assay: growth inhibition of engineered Ras-driven BJ cells – cell-based, alamar blue fluorescence, cherrypicked samples, dose response (AID 2631); assay type: functional; settings: Homo sapiens;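 further: confirmatory dose-response assay in RAS-dependent BJ fibroblasts engineered with TERT, LT and ST, with cytotoxicity read by fluorescence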
[21] = system: BJ; assay: BJ-TERT-LT-ST fibroblast viability loss – cell-based, RAS-independent, luminescence, dose response (AID 1935); assay type: functional; settings: Homo sapiens;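 further: BJ fibroblasts immortalized with TERT plus LT and ST oncogenes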
[22] = DRD fibroblast viability loss – cell-based, non-viral oncogenic, luminescence, dose response (AID 1934); assay type: functional; settings: Homo sapiens
[23] = system: BJ; assay: cells; assay type: functional, cell-based; settings: Homo sapiens
[24] = Luminescence Cell-Based Dose Retest to Confirm Inhibitors of Cancer Stem Cells. [Related pubchem assays (depositor defined):AID2717, AID2721]; assay type: functional; settings: Homo sapiens
[25] = molecular target: Luciferin 4-monooxygenase (Photinus pyralis, UniProt P08659); assay: inhibition of purified Photinus pyralis luciferase – biochemical, luminescence, dose response (AID 1891)
[26] = Luminescence Cell-Based Dose Confirmation HTS to Identify Inhibitors of Platelet Dense Granule Release. [Related pubchem assays: 1663 (Primary HTS), 1678 (Summary of Project)]; assay type: functional
[27] = HEK-293T cell viability reduction – luminescence, B-cell screen hits, cytotoxicity control for BCR NF-kB inhibitor project, dose response (AID 489021); assay type: functional, cell-based;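 further: HEK-293T cells carrying an NF-kB luciferase reporter; cells exposed to compound for about 14 hours before viability readout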
[28] = system: CHO; assay: CHO cell viability loss, potency – luminescence, cytotoxicity control for TLR9-MyD88 binding inhibitor project, dose response (AID 588339); assay type: functional, cell-based, hamster; settings: Cricetulus griseus;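 further: CHO cells stably coexpressing TLR9 and MyD88 fusions from primary screen; compound exposure lasted 48 hours before viability readout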

Peroxisome proliferator-activated receptor gamma/Nuclear receptor coactivator 3, sequence (P37231 whole entry): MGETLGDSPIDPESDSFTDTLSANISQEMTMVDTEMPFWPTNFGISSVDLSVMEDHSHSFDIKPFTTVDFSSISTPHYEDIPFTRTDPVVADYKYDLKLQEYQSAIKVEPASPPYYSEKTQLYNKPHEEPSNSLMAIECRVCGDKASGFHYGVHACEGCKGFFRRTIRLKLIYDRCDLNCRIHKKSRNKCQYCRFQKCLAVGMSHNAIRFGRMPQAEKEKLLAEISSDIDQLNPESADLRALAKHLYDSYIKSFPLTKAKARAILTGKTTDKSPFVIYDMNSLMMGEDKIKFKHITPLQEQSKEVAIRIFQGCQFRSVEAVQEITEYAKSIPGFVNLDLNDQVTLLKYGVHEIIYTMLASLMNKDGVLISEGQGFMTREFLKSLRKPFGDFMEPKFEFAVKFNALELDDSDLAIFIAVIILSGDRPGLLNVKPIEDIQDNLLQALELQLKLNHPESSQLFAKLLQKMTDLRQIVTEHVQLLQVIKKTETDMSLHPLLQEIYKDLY
Peroxisome proliferator-activated receptor gamma/Nuclear receptor coactivator 3, sequence (Q9Y6Q9 whole entry, further chain): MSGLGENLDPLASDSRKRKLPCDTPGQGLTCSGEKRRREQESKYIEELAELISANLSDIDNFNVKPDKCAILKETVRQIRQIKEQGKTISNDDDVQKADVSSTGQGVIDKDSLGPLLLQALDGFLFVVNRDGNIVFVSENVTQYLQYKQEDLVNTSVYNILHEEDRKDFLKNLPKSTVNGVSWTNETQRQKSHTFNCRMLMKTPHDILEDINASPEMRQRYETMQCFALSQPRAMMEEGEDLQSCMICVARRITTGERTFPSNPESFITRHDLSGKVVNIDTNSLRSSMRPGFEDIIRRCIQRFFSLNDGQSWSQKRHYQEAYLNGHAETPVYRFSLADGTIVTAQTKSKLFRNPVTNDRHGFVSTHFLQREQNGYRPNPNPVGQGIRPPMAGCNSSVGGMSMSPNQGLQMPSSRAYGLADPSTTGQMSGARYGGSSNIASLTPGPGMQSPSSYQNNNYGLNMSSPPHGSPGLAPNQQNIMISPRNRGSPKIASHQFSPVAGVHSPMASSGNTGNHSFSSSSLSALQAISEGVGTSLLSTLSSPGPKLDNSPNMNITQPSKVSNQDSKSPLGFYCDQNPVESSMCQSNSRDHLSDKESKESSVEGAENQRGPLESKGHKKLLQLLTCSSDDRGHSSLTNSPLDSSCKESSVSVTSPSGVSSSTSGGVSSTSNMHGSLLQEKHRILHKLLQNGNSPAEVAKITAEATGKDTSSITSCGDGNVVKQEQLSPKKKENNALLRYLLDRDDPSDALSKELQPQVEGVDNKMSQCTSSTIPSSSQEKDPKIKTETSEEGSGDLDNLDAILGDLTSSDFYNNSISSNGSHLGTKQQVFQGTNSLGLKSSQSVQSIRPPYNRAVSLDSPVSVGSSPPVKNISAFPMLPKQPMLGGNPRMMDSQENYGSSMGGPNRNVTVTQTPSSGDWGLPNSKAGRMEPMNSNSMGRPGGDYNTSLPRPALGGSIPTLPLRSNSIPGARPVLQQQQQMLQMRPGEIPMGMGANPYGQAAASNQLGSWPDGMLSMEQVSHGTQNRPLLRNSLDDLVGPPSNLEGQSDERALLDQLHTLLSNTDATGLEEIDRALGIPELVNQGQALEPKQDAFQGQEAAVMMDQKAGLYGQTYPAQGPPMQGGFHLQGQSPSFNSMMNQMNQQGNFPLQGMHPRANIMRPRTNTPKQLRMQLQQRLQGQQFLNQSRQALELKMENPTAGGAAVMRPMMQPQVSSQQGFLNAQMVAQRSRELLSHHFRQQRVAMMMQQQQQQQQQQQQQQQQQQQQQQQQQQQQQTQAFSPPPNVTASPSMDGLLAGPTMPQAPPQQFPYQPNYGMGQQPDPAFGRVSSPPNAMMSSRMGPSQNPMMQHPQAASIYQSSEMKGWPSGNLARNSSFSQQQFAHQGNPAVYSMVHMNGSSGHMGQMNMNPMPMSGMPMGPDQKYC
Peroxisome proliferator-activated receptor gamma/Nuclear receptor coactivator 2, sequence (P37231 whole entry): as the sequence (P37231 whole entry) above
Peroxisome proliferator-activated receptor gamma/Nuclear receptor coactivator 2, sequence (Q15596 whole entry, further chain): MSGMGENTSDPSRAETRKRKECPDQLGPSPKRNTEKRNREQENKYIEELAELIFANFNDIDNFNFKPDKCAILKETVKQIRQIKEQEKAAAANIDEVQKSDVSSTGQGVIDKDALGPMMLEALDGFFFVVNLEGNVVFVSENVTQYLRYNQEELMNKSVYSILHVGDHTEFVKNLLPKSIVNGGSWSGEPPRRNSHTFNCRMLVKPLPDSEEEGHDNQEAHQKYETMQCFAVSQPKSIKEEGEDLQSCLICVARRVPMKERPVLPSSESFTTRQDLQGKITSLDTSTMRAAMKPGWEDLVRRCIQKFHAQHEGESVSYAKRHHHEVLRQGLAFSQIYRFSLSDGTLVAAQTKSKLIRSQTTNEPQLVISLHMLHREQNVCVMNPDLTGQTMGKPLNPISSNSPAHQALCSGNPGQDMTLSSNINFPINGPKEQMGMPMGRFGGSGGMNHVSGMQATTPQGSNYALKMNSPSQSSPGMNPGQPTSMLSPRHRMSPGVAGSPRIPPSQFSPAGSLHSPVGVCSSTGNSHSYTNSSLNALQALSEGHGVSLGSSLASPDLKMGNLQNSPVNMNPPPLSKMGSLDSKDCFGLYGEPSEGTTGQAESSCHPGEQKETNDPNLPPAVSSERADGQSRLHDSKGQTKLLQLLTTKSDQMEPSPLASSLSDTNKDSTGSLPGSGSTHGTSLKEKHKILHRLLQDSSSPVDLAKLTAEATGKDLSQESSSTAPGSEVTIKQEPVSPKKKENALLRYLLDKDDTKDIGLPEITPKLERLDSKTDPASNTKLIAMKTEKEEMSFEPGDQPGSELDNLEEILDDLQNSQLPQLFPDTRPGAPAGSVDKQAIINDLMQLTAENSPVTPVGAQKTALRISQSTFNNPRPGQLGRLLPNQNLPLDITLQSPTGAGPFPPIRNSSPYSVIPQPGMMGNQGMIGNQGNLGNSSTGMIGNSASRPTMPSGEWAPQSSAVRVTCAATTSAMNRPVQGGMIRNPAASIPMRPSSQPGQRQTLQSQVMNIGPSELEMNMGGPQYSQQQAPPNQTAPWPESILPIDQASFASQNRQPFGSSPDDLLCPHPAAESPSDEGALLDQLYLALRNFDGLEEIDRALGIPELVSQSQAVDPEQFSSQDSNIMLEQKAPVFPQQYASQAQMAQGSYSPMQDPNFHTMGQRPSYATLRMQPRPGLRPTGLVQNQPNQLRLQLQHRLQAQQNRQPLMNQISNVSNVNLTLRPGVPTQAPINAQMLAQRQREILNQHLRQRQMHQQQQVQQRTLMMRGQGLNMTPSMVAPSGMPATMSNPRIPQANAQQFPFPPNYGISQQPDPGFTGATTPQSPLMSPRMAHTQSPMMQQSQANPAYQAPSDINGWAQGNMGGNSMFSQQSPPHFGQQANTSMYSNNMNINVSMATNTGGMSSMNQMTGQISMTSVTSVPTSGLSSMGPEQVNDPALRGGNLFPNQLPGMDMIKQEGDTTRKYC
Beta-galactosidase, sequence (Q8VNN2 whole entry): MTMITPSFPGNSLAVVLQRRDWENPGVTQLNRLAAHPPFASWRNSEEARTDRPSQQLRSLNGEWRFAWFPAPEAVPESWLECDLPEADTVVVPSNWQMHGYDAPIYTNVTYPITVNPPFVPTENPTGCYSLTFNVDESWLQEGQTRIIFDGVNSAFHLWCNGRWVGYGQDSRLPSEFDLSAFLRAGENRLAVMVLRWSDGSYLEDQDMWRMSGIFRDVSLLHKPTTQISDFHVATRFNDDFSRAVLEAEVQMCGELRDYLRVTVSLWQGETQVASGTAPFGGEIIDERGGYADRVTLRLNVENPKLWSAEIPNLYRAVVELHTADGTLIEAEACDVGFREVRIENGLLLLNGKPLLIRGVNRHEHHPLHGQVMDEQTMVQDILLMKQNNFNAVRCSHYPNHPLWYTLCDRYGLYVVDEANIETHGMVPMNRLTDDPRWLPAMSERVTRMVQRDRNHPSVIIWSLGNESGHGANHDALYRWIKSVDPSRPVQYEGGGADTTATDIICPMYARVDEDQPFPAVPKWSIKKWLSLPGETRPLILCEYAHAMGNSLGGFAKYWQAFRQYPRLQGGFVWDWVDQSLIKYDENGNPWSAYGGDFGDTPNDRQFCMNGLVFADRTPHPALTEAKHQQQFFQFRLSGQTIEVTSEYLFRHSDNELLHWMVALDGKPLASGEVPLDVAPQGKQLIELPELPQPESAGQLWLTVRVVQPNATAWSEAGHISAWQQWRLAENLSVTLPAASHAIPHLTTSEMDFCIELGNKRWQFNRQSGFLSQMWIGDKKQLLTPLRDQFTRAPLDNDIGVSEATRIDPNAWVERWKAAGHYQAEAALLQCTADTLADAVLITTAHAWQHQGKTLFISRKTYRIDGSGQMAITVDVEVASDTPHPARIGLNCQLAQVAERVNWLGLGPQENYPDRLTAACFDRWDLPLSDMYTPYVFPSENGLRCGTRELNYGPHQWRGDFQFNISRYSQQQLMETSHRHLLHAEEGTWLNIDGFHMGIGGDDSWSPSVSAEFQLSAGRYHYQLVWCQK

In the case of `COc1cccc(C(=O)Nc2nnc(-c3ccc(F)cc3)o2)c1`, the IC50 [1] is reported as 1.03 µM (active), the CC50 [2] is reported as 15.8 µM (active) and the EC50 [3] is reported as 5.74 µM (active). For the same compound, the CC50 [4] was 31.9 µM (active), the EC50 [5] was 2.33 µM (active) and the EC50 [6] was > 150 µM (inactive). The EC50 [7] was 1.96 µM (active).
With `CN=C(S)N1N=C(c2ccc(Br)cc2)CC1c1ccc(Br)cc1` (configuration not stated) the IC50 [8] was > 80 µM (inactive), the EC50 [9] was > 8.82 µM (not active) and the EC50 [10] was > 60 µM (not active). The EC50 [11] was 1.64 µM (active), the EC50 [12] was > 2.94 µM (active) and the EC50 [13] was > 26.5 µM (not active).
For `C=CCOC(=O)c1sc(NC(=O)c2ccco2)nc1C`, the EC50 [14] was 29.7 µM (active), the EC50 [6] was > 150 µM (inactive) and the EC50 [15] was > 180 µM (inactive). The EC50 [7] was 0.544 µM (active).
In the case of `Cn1cccc1/C=C1\CC(C(C)(C)C)C/C(=C\c2cccn2C)C1=O` (configuration not stated), the AC50 [16] is reported as 160 µM (active).
With `CN(C)NC(=O)c1ccc([N+](=O)[O-])s1` the EC50 [17] was > 71.4 µM (inactive).
With `Cc1cc(C)n2nc(SCC(=O)Nc3ccc(F)cc3)nc2n1` the IC50 [18] was > 50 µM (inactive).
With `O=C(NCc1cccnc1)c1ccc(NC(=O)c2ccc(Br)cc2)cc1` the EC50 [19] was > 150 µM (not active), the EC50 [20] was 0.169 µM (active) and the EC50 [21] was 14 µM (active). The EC50 [22] was > 150 µM (not active), the EC50 [23] was 1.3 µM (inconclusive) and the AC50 [24] was 1.36 µM (active).
In the case of `CCOc1ccc(N/C=C/C(=O)c2ccccc2)cc1`, the EC50 [25] is reported as 0.453 µM (active), the AC50 [16] is reported as 3.62 µM (active) and the EC50 [26] is reported as 2 µM (active).
With `COC(=O)c1c(-c2ccc(N(C)C)cc2)sc2ccc(OC)cc12` the IC50 [27] was > 80 µM (inactive), the IC50 [28] was > 49.7 µM (inactive) and the AC50 [24] was 3.3 µM (active).
